From patent publication US6875758B2, “Method of treating hyperlipidemic and hyperglycemic conditions in mammals using pregnadienols and pregnadienones” (Council of Scientific & Industrial Research, priority 1999, dated 2005)

How the values were obtained:
Human serum LDL = assay: Cu2+ induced oxidation of low density lipoprotein (TBA reactive lipid peroxides); format: biochemical; conditions: for MDA (Exp.): 16 hr at 37° C., pH 7.4; for generation of LDL lipid peroxide (in words): tested concentrations
Protocol: Human serum LDL was oxidized with Cu^′2 in different concentrations of test compound in 0.05 mole PBS, pH 7.4 for 16 hr at 37° C. Thiobarbituric acid reactive lipid peroxides are measured by standard procedure. […] Cu^′2 induced oxidation in LDL lipids are mainly due to the free OH radical during incubation.

[1] = Hydroxy (OH) radical formation in nonenzymatic system (Fe2+, ascorbate, H2O2, deoxyribose); format: biochemical
[2] = test system: isoproterneol induced myocardial necrosis in rat; assay: Isoproterneol induced myocardial necrosis in rats; format: in vivo; conditions: isoproterneol 85 mg/kg + drug 25 mg/kg p.o.
Excerpt: The underlying cause of myocardial infarction is believed to be the progressive deposition of lipids and fibrotic material into the arterial wall. These pregnadienols and pregnadienous also provided cardiac protection as assessed in isoproterneol induced myocardial necrosis in rat model, which produces myocardial infarction due to an increased blood pressure and heart rate.

[3] = test system: cholesterol fed hyperlipidemic rats; assay: Lipid peroxidation in cholesterol fed hyperlipidemic rats; format: in vivo
Triton treated rats = assay: Cholesterol lowering in Triton treated rats; format: in vivo, Charles Foster rats
Excerpt: The primary hypolipidemic effect of these compounds was established in triton induced hyperlipidemia in Charles Foster rats. […] The cholesterol lowering effect of some representative compounds of pregrenadienols and pregrenadienones as compared to clofibrate and gugulsterone in triton treated Charles Foster rats is described in Table-2.

glucose loaded rats = assay: Hypoglycemic activity in glucose loaded rats; format: in vivo, albino rats (Charles Foster strain); conditions: for Blood Glucose Level: 100 mg/kg p.o. + glucose 2.0 g/kg; for % inhibition compared to control (blood glucose): 100 mg/kg
Protocol: The experiments were carried out with albino rats (Charles Foster strain) of either sex weighing 150-160 g. They were fed on laboratory diet prepared by M/s Lipton India Ltd. and maintained under 12 hr. light/dark cycle at 25±2° C.
The animals were divided into eight groups, each of six rats; group I was given 1% gum acacia (0.1 ml/100 g body weight) intragastrically (p.o.) and the group II were given 3β-hydroxypregna-5,16-dien-20-one (2) in 1% gum acacia. Animals of group III were given the standard antidiabetic drug, tolbutamide in the similar fashion. 2.0 g/kg glucose was given p.o. to all the rats along with the vehicle/Compound/Standard antidiabetic drug. Blood samples were taken from retroorbital plexus at periodic intervals. Glucose levels in the blood samples were measured by glucose oxidase method [Bergmeyer and Benut, 1963 cited in “Methods of Enzymatic Analysis” ed. H. Bergmeyer, Verlag Chemie, GmBH, Weinheim, Beroster, pp123, Academic press, New York].

[4] = test system: streptozotocin induced diabetic rats; assay: Hypoglycemic activity in streptozotocin induced hyperglycemic rats; format: in vivo; conditions: 100 mg/kg p.o.
Protocol: Hyperglycemia in rats was produced by streptozotocin treatment. The animals showing blood glucose levels between 250-350 mg/dl were selected. Blood samples were collected after treatment at intervals and blood glucose levels were estimated immediately.

normal rats = assay: Hypolipidemic activity in normal rats; format: in vivo; conditions: 50 mg/kg
Protocol: In normal rats, 3β-hydroxypregna-5,16-dien-20one (2), at 50 mg/kg produced a significant lowering of serum cholesterol and triglycerides as describe in Table-3 below.

[5] = Rattus norvegicus, ip, 50 mg/kg i.p., read-out: % Change S. Chol.

Cc1ccc(C)c(OCCCC(C)(C)C(=O)O)c1 [Gemfibrozil, reference compound]
MDA (Exp.) (Human serum LDL; 2.5 μmol/ml): 53.0 ± 6.0 n mol MDA/mg protein | % inhibition of LDL oxidation (Human serum LDL; 5.0 μmol/ml): (5) % | MDA (Exp.) (Human serum LDL; 5.0 μmol/ml): 48.8 ± 6.7 n mol MDA/mg protein | MDA (Exp.) (Human serum LDL; 10.0 μmol/ml): 43.8 ± 4.9 n mol MDA/mg protein | % inhibition of LDL oxidation (Human serum LDL; 20 μmol/ml): (16) % | MDA (Exp.) (Human serum LDL; 20 μmol/ml): 41.4 ± 5.0 n mol MDA/mg protein | generation of LDL lipid peroxide (in words) (Human serum LDL): did not inhibit | % inhibition of OH radical formation ([1]; 5 μmol/ml): (4) % | OH radical formation ([1]; 5 μmol/ml): 79.9 ± 6.8 nmol MDA/hr | % inhibition of OH radical formation ([1]; 10 μmol/ml): (5) % | OH radical formation ([1]; 10 μmol/ml): 78.5 ± 8.0 nmol MDA/hr | % inhibition of OH radical formation ([1]; 20 μmol/ml): (8) % | OH radical formation ([1]; 20 μmol/ml): 76.8 ± 7.4 nmol MDA/hr | % inhibition of OH radical formation ([1]; 30 μmol/ml): (8) % | OH radical formation ([1]; 30 μmol/ml): 76.4 ± 3.8 nmol MDA/hr | % inhibition of OH radical formation ([1]; 40 μmol/ml): (11) % | OH radical formation ([1]; 40 μmol/ml): 74.3 ± 6.3 nmol MDA/hr | % inhibition of OH radical formation ([1]; 50 μmol/ml): (13) % | OH radical formation ([1]; 50 μmol/ml): 72.4 ± 8.0 nmol MDA/hr | Heart Ca. - ATPase % Protection [2]: 30.2% | Heart Glycogen % Protection [2]: 32.1% | Heart Lipid peroxide % Protection [2]: 69.8% | Heart Phospholipase % Protection [2]: 28.2% | Serum Alkaline Phosphatase % Protection [2]: 41.2% | Serum CPK % Protection [2]: 33.9% | Serum GOT % Protection [2]: 24.9% | Serum GPT % Protection [2]: 33.4% | HDL lipid peroxides ([3]; cholesterol + drug 25 mg/kg): 134 ± 13 n mol MDA/dl | HDL lipid peroxides % reversal as compared with cholesterol fed rats ([3]; cholesterol + drug 25 mg/kg): (−3) % | LDL lipid peroxides ([3]; cholesterol + drug 25 mg/kg): 568 ± 62 n mol MDA/dl | LDL lipid peroxides % reversal as compared with cholesterol fed rats ([3]; cholesterol + drug 25 mg/kg): (−6) % | Liver lipid peroxides ([3]; cholesterol + drug 25 mg/kg): 253 ± 26 n mol MDA/g | Liver lipid peroxides % reversal as compared with cholesterol fed rats ([3]; cholesterol + drug 25 mg/kg): (−8) % | Serum lipid peroxides ([3]; cholesterol + drug 25 mg/kg): 1161 ± 74 n mol MDA/dl | Serum lipid peroxides % reversal as compared with cholesterol fed rats ([3]; cholesterol + drug 25 mg/kg): (−5) % | VLDL lipid peroxides ([3]; cholesterol + drug 25 mg/kg): 346 ± 10 n mol MDA/dl | VLDL lipid peroxides % reversal as compared with cholesterol fed rats ([3]; cholesterol + drug 25 mg/kg): (−9) % | lipid peroxide levels in serum VLDL, LDL and liver (in words) ([3]; cholesterol fed animals, simultaneous treatment): failed to protect

CC(=O)O[C@H]1CC[C@@]2(C)C(=CC[C@H]3[C@@H]4CC[C@H](C(C)=O)[C@@]4(C)CC[C@@H]32)C1 [Compound 4, 3β-Aceoxypregna-5-en-20-one]
% Change S. Chol. (Triton treated rats; 100 mg/kg i.p.): −12%

CC(=O)O[C@H]1CC[C@@]2(C)C(=CC[C@@H]3[C@@H]2CC[C@]2(C)C(C(C)=O)=CC[C@@H]32)C1 [Compound 1, 3β-Acetoxypregna-5,16-dien-20-one]
change in vivo at 50 mg/kg (Triton treated rats; [5]): -43%

CCCCNC(=O)NS(=O)(=O)c1ccc(C)cc1 [Tolbutamide, reference compound]
Maximum Blood Glucose Change (glucose loaded rats; 100 mg/kg p.o. + glucose): −41.7% | Blood Glucose Level (glucose loaded rats; 0 min): 38.15 ± 2.02 mg/dL | Blood Glucose Level (glucose loaded rats; 30 min): 76.31 ± 6.29 mg/dL | Blood Glucose Level (glucose loaded rats; 60 min): 27.26 ± 3.1 mg/dL | Blood Glucose Level (glucose loaded rats; 90 min): 24.64 ± 1.92 mg/dL | Blood Glucose Level (glucose loaded rats; 120 min): 23.07 ± 3.11 mg/dL | % inhibition compared to control (blood glucose) (glucose loaded rats; 30 min): (35) % | % inhibition compared to control (blood glucose) (glucose loaded rats; 60 min): (100) % | % inhibition compared to control (blood glucose) (glucose loaded rats; 90 min): (100) % | % inhibition compared to control (blood glucose) (glucose loaded rats; 120 min): (100) % | Blood Glucose Level ([4]; 0 hr): 292 ± 10 mg/dL | % lowering from zero hour value (blood glucose) ([4]; 1 hr): (25.3) % | % lowering from zero hour value (blood glucose) ([4]; 2 hr): (29.1) % | % lowering from zero hour value (blood glucose) ([4]; 3 hr): (30.8) % | % lowering from zero hour value (blood glucose) ([4]; 4 hr): (33.2) % | % lowering from zero hour value (blood glucose) ([4]; 5 hr): (37.3) % | % lowering from zero hour value (blood glucose) ([4]; 6 hr): (40.4) % | % lowering from zero hour value (blood glucose) ([4]; 7 hr): (34.2) % | % lowering from zero hour value (blood glucose) ([4]; 8 hr): (17.1) % | Blood Glucose Level ([4]; 24 hr): 332 ± 26 mg/dL

CC(O)C1=CCC2C3CC=C4CC(O)CC[C@]4(C)C3CC[C@]12C (stereo partly drawn) [Compound 6, 5,16-Dien-pregnane-3,20-diol]
change in vivo at 50 mg/kg (Triton treated rats; [5]): -10%

CC=C1C(OC(C)=O)C[C@H]2[C@@H]3CC=C4CC(OC(C)=O)CC[C@]4(C)[C@H]3CC[C@]12C (stereo partly drawn) [Compound 7, 5,17(20)-Dienpregna-3,16-diol-diacetate]
% Change S. Chol. (Triton treated rats; 50 mg/kg i.p.): −33%

C/C=C1/C(O)CC2C3CC=C4CC(O)CC[C@]4(C)C3CC[C@]12C (stereo partly drawn) [Compound 8, 5,17(20)-Dienpregna-3,16-diol]
change in vivo at 50 mg/kg (Triton treated rats; [5]): -31%

CCOC(=O)C(C)(C)Oc1ccc(Cl)cc1 [Compound 10, Clofibrate, reference compound]
Serum Cholesterol (normal rats; 0 Days): 82.3 ± 3.3 mg % | Serum Cholesterol (normal rats; 30 Days): 53.2 ± 2.0 mg % | Serum Cholesterol % Fall (normal rats; 30 Days): 36% | Serum Triglycerides (normal rats; 30 Days): 47.3 ± 3.2 mg % | Serum Triglycerides % Fall compared to control (normal rats; 30 Days): 28% | change in vivo at 200 mg/kg (Triton treated rats; Rattus norvegicus, ip, 200 mg/kg i.p., read-out: % Change S. Chol.): -15%

Cc1c(C)c2c(c(C)c1O)CC[C@@](C)(CCC[C@H](C)CCC[C@H](C)CCCC(C)C)O2 [α-Tocopherol]
% inhibition of LDL oxidation (Human serum LDL; 0.25 μmol/ml): (3) % | MDA (Exp.) (Human serum LDL; 0.25 μmol/ml): 44.7 ± 4.5 n mol MDA/mg protein | % inhibition of LDL oxidation (Human serum LDL; 0.5 μmol/ml): (13) % | MDA (Exp.) (Human serum LDL; 0.5 μmol/ml): 41.6 ± 4.0 n mol MDA/mg protein | MDA (Exp.) (Human serum LDL; 1.0 μmol/ml): 35.0 ± 3.8 n mol MDA/mg protein | % inhibition of LDL oxidation (Human serum LDL; 2.0 μmol/ml): (51) % | MDA (Exp.) (Human serum LDL; 2.0 μmol/ml): 24.3 ± 2.0 n mol MDA/mg protein | generation of LDL lipid peroxide (in words) (Human serum LDL): inhibit the generation of LDL lipid peroxide in concentration dependent manner | % inhibition of OH radical formation ([1]; 1 μmol/ml): (23) % | OH radical formation ([1]; 1 μmol/ml): 60.4 ± 7.0 nmol MDA/hr | % inhibition of OH radical formation ([1]; 2 μmol/ml): (42) % | OH radical formation ([1]; 2 μmol/ml): 45.2 ± 3.3 nmol MDA/hr | % inhibition of OH radical formation ([1]; 3 μmol/ml): (59) % | OH radical formation ([1]; 3 μmol/ml): 32.4 ± 3.5 nmol MDA/hr | % inhibition of OH radical formation ([1]; 4 μmol/ml): (65) % | OH radical formation ([1]; 4 μmol/ml): 27.1 ± 2.8 nmol MDA/hr | % inhibition of OH radical formation ([1]; 5 μmol/ml): (73) % | OH radical formation ([1]; 5 μmol/ml): 20.9 ± 2.0 nmol MDA/hr

CC(=O)C1=CCC2C3CCC4=CC(=O)CC[C@]4(C)C3CC[C@]12C (stereo partly drawn) [Compound 3, 4,16-Dienpregna-3,20-dione]
change in vivo at 50 mg/kg (Triton treated rats; [5]): -13%

CC(=O)[C@H]1CC[C@H]2[C@@H]3CC=C4C[C@@H](O)CC[C@]4(C)[C@H]3CC[C@]12C [Compound 5, 3β-Hydroxypregna-5-en-20-one]
change in vivo at 100 mg/kg (Triton treated rats; Rattus norvegicus, ip, 100 mg/kg i.p., read-out: % Change S. Chol.): -9%

C/C=C1/C(=O)CC2C3CCC4=CC(=O)CC[C@]4(C)C3CC[C@]12C (stereo partly drawn) [Compound 9, Gugulsterone, reference compound]
change in vivo at 50 mg/kg (Triton treated rats; [5]): -44%
